Reference: the NIST ThermoML archive (doi:10.1021/je0495785)
± gives the expanded uncertainty stated by the source.

Columns and labels:
[1] = Molar enthalpy of transition or fusion; details: Crystal; DSC
[2] = molar enthalpy of vaporization or sublimation; details: Liquid, DSC
[3] = for Normal melting temperature: Crystal, DTA; for Normal boiling temperature: Liquid, not specified, probably DSC
[4] = molar heat capacity at constant pressure; details: 101.33 kPa, Small sample (50 mg) DSC

Cc1ccc(N(c2ccc(C)cc2)c2ccc(C)cc2)cc1 [tri-tolylamine]
Details	Molar enthalpy of transition or fusion [kcal/mol]	Normal boiling temperature [°C]	Normal melting temperature [°C]
[1]	4.77 ± 0.478	–	–
[3]	–	300.89 ± 100	115.59 ± 2

Details	molar enthalpy [kcal/mol]
[2], 574.04 K	17.3 ± 3.82

Cc1ccc(N(c2ccc(C)cc2)c2cccc(C)c2)cc1 [3-methyl-N,N-bis(4-methylphenyl)benzenamine]
Details	Molar enthalpy of transition or fusion [kcal/mol]	Normal boiling temperature [°C]	Normal melting temperature [°C]
[1]	5.19 ± 0.526	–	–
[3]	–	315.94 ± 100	56.70 ± 2

Details	molar enthalpy [kcal/mol]
[2], 589.09 K	18.1 ± 3.82

[4]
Details	molar heat capacity at constant pressure [J/K/mol]
298 K, Crystal	417.01 ± 42
303 K, Crystal	369.25 ± 37
308 K, Crystal	351.52 ± 35
313 K, Crystal	363.76 ± 37
318 K, Crystal	406.01 ± 41
323 K, Crystal	478.26 ± 48
325 K, Crystal	515.56 ± 52
339 K, Liquid	442.71 ± 45
343 K, Liquid	440.93 ± 45
348 K, Liquid	438.63 ± 44
353 K, Liquid	436.24 ± 44
358 K, Liquid	433.8 ± 44
363 K, Liquid	431.3 ± 44
368 K, Liquid	428.71 ± 43
373 K, Liquid	426.07 ± 43
378 K, Liquid	423.34 ± 43
383 K, Liquid	420.55 ± 42
388 K, Liquid	417.68 ± 42
393 K, Liquid	414.74 ± 42

Cc1cccc(N(c2cccc(C)c2)c2cccc(C)c2)c1 [3-methyl-N,N-bis(3-methylphenyl)benzenamine]
Details	Molar enthalpy of transition or fusion [kcal/mol]	Normal boiling temperature [°C]	Normal melting temperature [°C]
[1]	3.12 ± 0.311	–	–
[3]	–	294.84 ± 100	39.81 ± 2

Details	molar enthalpy [kcal/mol]
[2], 567.99 K	8.98 ± 0.956

[4]
Details	molar heat capacity at constant pressure [J/K/mol]
240 K, Crystal	1455.4 ± 150
245 K, Crystal	1383 ± 140
250 K, Crystal	1322.8 ± 130
255 K, Crystal	1274.6 ± 130
260 K, Crystal	1238.6 ± 130
265 K, Crystal	1214.8 ± 120
270 K, Crystal	1203 ± 120
275 K, Crystal	1203.4 ± 120
280 K, Crystal	1216 ± 120
285 K, Crystal	1240.6 ± 130
290 K, Crystal	1277.4 ± 130
295 K, Crystal	1326.3 ± 130
300 K, Crystal	1387.4 ± 140
306 K, Crystal	1476.7 ± 150
336 K, Liquid	1250.8 ± 130
341 K, Liquid	1249.7 ± 130
346 K, Liquid	1249.5 ± 130
351 K, Liquid	1250.1 ± 130
356 K, Liquid	1251.5 ± 130
361 K, Liquid	1253.8 ± 130
366 K, Liquid	1257 ± 130
371 K, Liquid	1261 ± 130
376 K, Liquid	1265.8 ± 130
381 K, Liquid	1271.5 ± 130

Cc1ccc(N(c2cccc(C)c2)c2cccc(C)c2)cc1 [3-methyl-N-(3-methylphenyl)-N-(4-methylphenyl)benzenamine]
Details	Molar enthalpy of transition or fusion [kcal/mol]	Normal boiling temperature [°C]	Normal melting temperature [°C]
[1]	6.31 ± 0.645	–	–
[3]	–	274.1 ± 100	89.50 ± 2

Details	molar enthalpy [kcal/mol]
[2], 547.3 K	16.6 ± 3.59

molar heat capacity at constant pressure [J/K/mol], [4]
Details	330 K	335 K	340 K	365 K	369 K	372 K
Crystal	114.18 ± 12	117.34 ± 12	98.12 ± 9.9	–	–	–
Liquid	–	–	–	143.7 ± 15	141.06 ± 14	137.86 ± 14
